Data from US12522595B2, “Bicyclic ether O-glycoprotein-2-acetamido-2-deoxy-3-D-glucopyranosidase inhibitors” (BIOGEN MA INC., priority 2019, dated 2026).
pIC50: −log10 of the molar value.

molecular target: T1, Recombinant full length human OGA enzyme (Homo sapiens, UniProt O60502); assay: OGA enzyme inhibition biochemical assay; settings: 1 nM OGA, 100 μM 4-MUGlcNAc (Km), pH 6.4, 90 minutes at room temperature, 10-point dose-response from 20 μM
T1 construct: Recombinant full length human OGA enzyme was purchased from Origene; purchased Origene
T1 sequence (O60502 1-916): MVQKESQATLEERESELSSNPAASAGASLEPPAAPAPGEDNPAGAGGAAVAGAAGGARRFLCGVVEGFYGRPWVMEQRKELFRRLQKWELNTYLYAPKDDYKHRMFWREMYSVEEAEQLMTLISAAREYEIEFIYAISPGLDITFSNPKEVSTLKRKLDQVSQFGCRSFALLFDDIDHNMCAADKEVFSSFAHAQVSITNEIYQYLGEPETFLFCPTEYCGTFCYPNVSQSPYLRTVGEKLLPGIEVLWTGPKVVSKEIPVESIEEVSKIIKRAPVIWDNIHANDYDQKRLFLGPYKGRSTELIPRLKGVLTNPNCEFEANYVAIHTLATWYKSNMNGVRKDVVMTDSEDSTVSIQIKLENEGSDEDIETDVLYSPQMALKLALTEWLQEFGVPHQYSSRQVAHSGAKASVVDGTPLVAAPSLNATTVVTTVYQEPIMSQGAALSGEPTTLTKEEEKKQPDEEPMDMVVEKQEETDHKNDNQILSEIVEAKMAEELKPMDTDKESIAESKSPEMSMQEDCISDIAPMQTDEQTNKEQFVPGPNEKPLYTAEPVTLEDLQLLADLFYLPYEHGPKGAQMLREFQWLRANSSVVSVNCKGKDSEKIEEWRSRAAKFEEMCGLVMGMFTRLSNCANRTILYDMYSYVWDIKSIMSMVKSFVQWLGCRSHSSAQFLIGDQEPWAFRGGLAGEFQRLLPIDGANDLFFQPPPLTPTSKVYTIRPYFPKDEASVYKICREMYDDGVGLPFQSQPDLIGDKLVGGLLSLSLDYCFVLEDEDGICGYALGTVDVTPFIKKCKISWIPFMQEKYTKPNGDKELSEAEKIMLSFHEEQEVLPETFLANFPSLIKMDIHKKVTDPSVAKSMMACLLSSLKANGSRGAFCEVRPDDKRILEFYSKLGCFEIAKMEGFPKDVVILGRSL
Method: N-(5-(((2S,4R)-4-([1,2,4]triazolo[4,3-a]pyrazin-3-yloxy)-2-methylpyrrolidin-1-yl)methyl)-4-fluorothiazol-2-yl)acetamide: The title compound was prepared in an analogous manner as Example 172 from 3-bromo-[1,2,4]triazolo[4,3-a]pyrazine. LCMS (ESI): [M+H] 392. ^1H NMR (600 MHz, CHLOROFORM-d) δ 10.75 (br s, 1H), 9.04 (s, 1H), 9.03 (s, 1H), 7.24 (s, 1H), 4.99-5.06 (m, 1H), 4.01 (d, J=14.49 Hz, 1H), 3.64 (d, J=14.67 Hz, 1H), 3.40 (d, J=11.55 Hz, 1H), 2.75 (dd, J=5.78, 11.46 Hz, 1H), 2.61-2.72 (m, 2H), 2.32 (s, 4H), 1.84-1.92 (m, 1H), 1.30 (d, J=5.87 Hz, 4H). ^19F NMR (565 MHz, CHLOROFORM-d) 6-115.92 (br s, 1F). OGA Enzyme Inhibition Biochemical Assay
Recombinant full length human OGA enzyme was purchased from Origene. 4-MUGlCNAc substrate was purchased from Sigma. All other reagents were purchased from Sigma or Fisher. Assay buffer consists of the McIlvaine buffer system, pH 6.4 (0.2M Na2HPO4 mixed with 0.1M citric acid) and 0.01% BSA. Reactions consist of 1 nM OGA, 100 μM 4-MUGlcNAc (Km), and compound in a final volume of 10 μl. Reactions were incubated for 90 minutes at room temperature and quenched with 40 μl of 3M glycine, pH 10 and read on a Perkin Elmer Envision plate reader (Ex: 355 nm/Em: 460 nm). Compounds were tested with a 10-point dose-response starting from 20 μM with a 4-fold dilution. Data, as presented in Table 1 below, was fit using GraphPad Prism using a 4-parameter fit with variable slope.

| Compound | pIC50 |
| --- | --- |
| CC(=O)Nc1ncc(CN2C[C@H](Oc3ccnc4nc(C(F)(F)F)nn34)C[C@@H]2C)s1 [Example 34, N-(5-(((2S,4R)-2-methyl-4-((2-(trifluoromethyl)-[1,2,4]triazolo[1,5-a]pyrimidin-7-yl)oxy)pyrrolidin-1-yl)methyl)thiazol-2-yl)acetamide] | 7.66 |
| CC(=O)Nc1nc(F)c(CN2C[C@H](Oc3cc4cnn(C)c4cn3)C[C@@H]2C)s1 [Example 90, N-(4-fluoro-5-(((2S,4R)-2-methyl-4-((1-methyl-1H-pyrazolo[3,4-c]pyridin-5-yl)oxy)pyrrolidin-1-yl)methyl)thiazol-2-yl)acetamide] | > 9.00 |
| CC(=O)Nc1ncc(CN2C[C@H](Oc3cc(C(N)=O)nc4ccccc34)C[C@@H]2C)s1 [Example 21, 4-(((3R,5S)-1-((2-acetamidothiazol-5-yl)methyl)-5-methylpyrrolidin-3-yl)oxy)quinoline-2-carboxamide] | 8.72 |
| CC(=O)Nc1nc(F)c(CN2C[C@H](Oc3ccc4cccnc4n3)C[C@@H]2C)s1 [Example 82, N-(5-(((2S,4R)-4-((1,8-naphthyridin-2-yl)oxy)-2-methylpyrrolidin-1-yl)methyl)-4-fluorothiazol-2-yl)acetamide] | > 9.00 |
| CC(=O)Nc1nc(F)c(CN2C[C@H](Oc3ccc4nn(C)nc4n3)C[C@@H]2C)s1 [Example 151, N-(4-fluoro-5-(((2S,4R)-2-methyl-4-((2-methyl-2H-[1,2,3]triazolo[4,5-b]pyridin-5-yl)oxy)pyrrolidin-1-yl)methyl)thiazol-2-yl)acetamide] | > 9.00 |
| CC(=O)Nc1ncc(CN2C[C@H](Oc3ccnc4ccoc34)C[C@@H]2C)s1 [Example 48, N-(5-(((2S,4R)-4-(furo[3,2-b]pyridin-7-yloxy)-2-methylpyrrolidin-1-yl)methyl)thiazol-2-yl)acetamide] | > 9.00 |
| COc1cc2c(O[C@@H]3C[C@H](C)N(Cc4sc(NC(C)=O)nc4F)C3)ncnc2cc1F [Example 125, N-(4-fluoro-5-(((2S,4R)-4-((7-fluoro-6-methoxyquinazolin-4-yl)oxy)-2-methylpyrrolidin-1-yl)methyl)thiazol-2-yl)acetamide] | 8.74 |
| CC(=O)Nc1ncc(CN2C[C@H](Oc3ncnc4occc34)C[C@@H]2C)s1 [Example 46, N-(5-(((2S,4R)-4-(furo[2,3-d]pyrimidin-4-yloxy)-2-methylpyrrolidin-1-yl)methyl)thiazol-2-yl)acetamide] | 8.96 |
| CC(=O)Nc1ncc(CN2C[C@H](Oc3cccc4cn(C)nc34)C[C@@H]2C)s1 [Example 159, N-(5-(((2S,4R)-2-methyl-4-((2-methyl-2H-indazol-7-yl)oxy)pyrrolidin-1-yl)methyl)thiazol-2-yl)acetamide] | > 9.00 |
| CC(=O)Nc1nc(F)c(CN2C[C@H](Oc3ccn4nccc4c3)C[C@@H]2C)s1 [Example 49, N-(4-fluoro-5-(((2S,4R)-2-methyl-4-(pyrazolo[1,5-a]pyridin-5-yloxy)pyrrolidin-1-yl)methyl)thiazol-2-yl)acetamide] | > 9.00 |
| CC(=O)Nc1ncc(CN2C[C@H](Oc3ccc4ccnn4c3)C[C@@H]2C)s1 [Example 155, N-(5-(((2S,4R)-2-methyl-4-(pyrazolo[1,5-a]pyridin-6-yloxy)pyrrolidin-1-yl)methyl)thiazol-2-yl)acetamide] | > 9.00 |
| CC(=O)Nc1nc(F)c(CN2C[C@H](Oc3ccn4nccc4n3)C[C@@H]2C)s1 [Example 62, N-(4-fluoro-5-(((2S,4R)-2-methyl-4-(pyrazolo[1,5-a]pyrimidin-5-yloxy)pyrrolidin-1-yl)methyl)thiazol-2-yl)acetamide] | > 9.00 |
| COc1nc(O[C@@H]2C[C@H](C)N(Cc3sc(NC(C)=O)nc3F)C2)cc2cc(F)ccc12 [Example 131, N-(4-fluoro-5-(((2S,4R)-4-((6-fluoro-1-methoxyisoquinolin-3-yl)oxy)-2-methylpyrrolidin-1-yl)methyl)thiazol-2-yl)acetamide] | > 9.00 |
| CC(=O)Nc1nc(F)c(CN2C[C@H](Oc3ncc4ncn(C)c4n3)C[C@@H]2C)s1 [Example 113, N-(4-fluoro-5-(((2S,4R)-2-methyl-4-((9-methyl-9H-purin-2-yl)oxy)pyrrolidin-1-yl)methyl)thiazol-2-yl)acetamide] | > 9.00 |

Next, values leading:

| pIC50 | Compound |
| --- | --- |
| > 9.00 | CC(=O)Nc1nc(F)c(CN2C[C@H](Oc3nc4ncccc4o3)C[C@@H]2C)s1 [Example 158, N-(4-fluoro-5-(((2S,4R)-2-methyl-4-(oxazolo[4,5-b]pyridin-2-yloxy)pyrrolidin-1-yl)methyl)thiazol-2-yl)acetamide] |
| > 9.00 | CC(=O)Nc1nc(F)c(CN2C[C@H](Oc3ccn4ccnc4c3)C[C@@H]2C)s1 [Example 43, N-(4-fluoro-5-(((2S,4R)-4-(imidazo[1,2-a]pyridin-7-yloxy)-2-methylpyrrolidin-1-yl)methyl)thiazol-2-yl)acetamide] |
| > 9.00 | COc1ccc2ccc(O[C@@H]3C[C@H](C)N(Cc4sc(NC(C)=O)nc4F)C3)nc2c1 [Example 80, N-(4-fluoro-5-(((2S,4R)-4-((7-methoxyquinolin-2-yl)oxy)-2-methylpyrrolidin-1-yl)methyl)thiazol-2-yl)acetamide] |
| > 9.00 | CC(=O)Nc1nc(F)c(CN2C[C@H](Oc3ncnn4cccc34)C[C@@H]2C)s1 [Example 106, N-(4-fluoro-5-(((2S,4R)-2-methyl-4-(pyrrolo[2,1-f][1,2,4]triazin-4-yloxy)pyrrolidin-1-yl)methyl)thiazol-2-yl)acetamide] |
| > 9.00 | CC(=O)Nc1ncc(CN2C[C@H](Oc3cc4nc(C)cn4cn3)C[C@@H]2C)s1 [Example 40, N-(5-(((2S,4R)-2-methyl-4-((2-methylimidazo[1,2-c]pyrimidin-7-yl)oxy)pyrrolidin-1-yl)methyl)thiazol-2-yl)acetamide] |
| > 9.00 | CC(=O)Nc1ncc(CN2C[C@H](Oc3ccn4nccc4n3)C[C@@H]2C)s1 [Example 61, N-(5-(((2S,4R)-2-methyl-4-(pyrazolo[1,5-a]pyrimidin-5-yloxy)pyrrolidin-1-yl)methyl)thiazol-2-yl)acetamide] |
| > 9.00 | CC(=O)Nc1nc(F)c(CN2C[C@H](Oc3ccn4nc(C)cc4n3)C[C@@H]2C)s1 [Example 112, N-(4-fluoro-5-(((2S,4R)-2-methyl-4-((2-methylpyrazolo[1,5-a]pyrimidin-5-yl)oxy)pyrrolidin-1-yl)methyl)thiazol-2-yl)acetamide] |
| > 9.00 | CC(=O)Nc1ncc(CN2C[C@H](Oc3cccc4nccn34)C[C@@H]2C)s1 [Example 63, N-(5-(((2S,4R)-4-(imidazo[1,2-a]pyridin-5-yloxy)-2-methylpyrrolidin-1-yl)methyl)thiazol-2-yl)acetamide] |
| > 9.00 | CC(=O)Nc1nc(F)c(CN2C[C@H](Oc3ccc4nc(C)nn4c3)C[C@@H]2C)s1 [Example 144, N-(4-fluoro-5-(((2S,4R)-2-methyl-4-((2-methyl-[1,2,4]triazolo[1,5-a]pyridin-6-yl)oxy)pyrrolidin-1-yl)methyl)thiazol-2-yl)acetamide] |
| > 9.00 | CCc1cc2c(O[C@@H]3C[C@H](C)N(Cc4cnc(NC(C)=O)s4)C3)nccc2o1 [Example 15, N-(5-(((2S,4R)-4-((2-ethylfuro[3,2-c]pyridin-4-yl)oxy)-2-methylpyrrolidin-1-yl)methyl)thiazol-2-yl)acetamide] |
